Data from PubChem BioAssay AID330 (DTP/NCI, 2004).
“And” between values parts separate entries of the source, which are not always exact repeats. Equal entries are not always repeated. Toxic doses and inconclusive results are not listed. How the source made its calls: active means survival T/C of 150% or more; inactive means T/C below 125% in these data.

Test system: P388 leukemia ip, CD2F1 mice, survival T/C
Assay: NCI In Vivo Anticancer Drug Screen. Data for tumor model P388 Leukemia (intraperitoneal) in CD2F1 (CDF1) mice
Details: endpoint: median survival time, higher = longer survival
Procedure, shortened: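 Mice carrying the transplanted tumor received test compound or vehicle. Survival was recorded in each group, and the value is the treated-group measurement divided by that of the vehicle-treated control group.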

[1] = dose: 50.0 mg/kg/injection, schedule: Q01DX009 (ip), vehicle: saline with Tween-80
[2] = dose: 100.0 mg/kg/injection, schedule: Q01DX009 (ip), vehicle: saline with Tween-80
[3] = dose: 200.0 mg/kg/injection, schedule: Q01DX009 (ip), vehicle: saline with Tween-80
[4] = dose: 60.0 mg/kg/injection, schedule: Q01DX005 (ip), vehicle: saline with Tween-80
[5] = dose: 120.0 mg/kg/injection, schedule: Q01DX005 (ip), vehicle: saline with Tween-80
[6] = dose: 240.0 mg/kg/injection, schedule: Q01DX005 (ip), vehicle: saline with Tween-80

Measured: T/C

O=C1CSC(=O)N1c1ccc(F)cc1
inactive: dose: 6.25 mg/kg/injection, schedule: Q01DX009 (ip), vehicle: saline 98 % of control | dose: 12.5 mg/kg/injection, schedule: Q01DX009 (ip), vehicle: saline 113 % of control | dose: 25.0 mg/kg/injection, schedule: Q01DX009 (ip), vehicle: saline 114 % of control | [1] 106 % of control | [2] 104 % of control | [3] 87 % of control

O=S1(=O)OCCCO1
inactive: dose: 12.5 mg/kg/injection, schedule: Q01DX005 (ip), vehicle: saline 109 % of control | dose: 25.0 mg/kg/injection, schedule: Q01DX005 (ip), vehicle: saline 98 % of control | dose: 50.0 mg/kg/injection, schedule: Q01DX005 (ip), vehicle: saline 124 % of control

CCN(CC)CCCNc1cc(C)c2cc(OC)ccc2n1
inactive: dose: 25.0 mg/kg/injection, schedule: Q01DX001 (ip), vehicle: saline with Tween-80 99 % of control | dose: 50.0 mg/kg/injection, schedule: Q01DX001 (ip), vehicle: saline with Tween-80 97 % of control | dose: 100.0 mg/kg/injection, schedule: Q01DX001 (ip), vehicle: saline with Tween-80 90 % of control

C=COC(=O)C(C)(CC)CC(C)C (stereo unspecified)
inactive: dose: 50.0 mg/kg/injection, schedule: Q01DX009 (ip), vehicle: other 115 % of control | dose: 100.0 mg/kg/injection, schedule: Q01DX009 (ip), vehicle: other 108 % of control

O=c1cccc2c1c1cc[nH]c3ccc(=O)n2c31
inactive: dose: 1.25 mg/kg/injection, schedule: Q01DX009 (ip), vehicle: saline with Tween-80 98 % of control | dose: 2.5 mg/kg/injection, schedule: Q01DX009 (ip), vehicle: saline with Tween-80 107 % of control | dose: 5.0 mg/kg/injection, schedule: Q01DX009 (ip), vehicle: saline with Tween-80 102 % of control

CCOC(=O)c1ccc(NCc2cccc([N+](=O)[O-])c2)cc1
inactive: dose: 100.0 mg/kg/injection, schedule: Q04DX003 (ip), vehicle: saline 109 % of control | dose: 200.0 mg/kg/injection, schedule: Q04DX003 (ip), vehicle: saline 101 % of control | dose: 400.0 mg/kg/injection, schedule: Q04DX003 (ip), vehicle: saline 101 % of control

Nc1nnc(Cc2ccccc2)n1N
inactive: dose: 15.0 mg/kg/injection, schedule: Q01DX005 (ip), vehicle: saline 100 % of control | dose: 30.0 mg/kg/injection, schedule: Q01DX005 (ip), vehicle: saline 101 % of control | [4] 98 % of control | dose: 60.0 mg/kg/injection, schedule: Q01DX005 (ip), vehicle: saline 100 % of control and 117 % of control | [5] 100 % of control | dose: 120.0 mg/kg/injection, schedule: Q01DX005 (ip), vehicle: saline 116 % of control | [6] 94 % of control

CCC(=O)Oc1ccccc1C
inactive: dose: 12.5 mg/kg/injection, schedule: Q04DX003 (ip), vehicle: saline with Tween-80 103 % of control | dose: 25.0 mg/kg/injection, schedule: Q04DX003 (ip), vehicle: saline with Tween-80 105 % of control | dose: 50.0 mg/kg/injection, schedule: Q04DX003 (ip), vehicle: saline with Tween-80 103 % of control | dose: 100.0 mg/kg/injection, schedule: Q04DX003 (ip), vehicle: saline with Tween-80 103 % of control

N/N=C(/N)C1=NOCC1
inactive: dose: 100.0 mg/kg/injection, schedule: Q04DX002 (ip), vehicle: saline 114 % of control | dose: 200.0 mg/kg/injection, schedule: Q04DX002 (ip), vehicle: saline 106 % of control

N#CC(=C1SCS1)[N+](=O)[O-]
inactive: dose: 1.56 mg/kg/injection, schedule: Q01DX009 (ip), vehicle: saline 121 % of control | dose: 3.13 mg/kg/injection, schedule: Q01DX009 (ip), vehicle: saline with Tween-80 121 % of control

COC(=O)Nc1cn2c(n1)SCC2
inactive: [4] 98 % of control | [5] 95 % of control | [6] 100 % of control

CC1(C)CC(=O)C2(OC3=C([Se]2)C(=O)CC(C)(C)C3)C(=O)C1
inactive: [1] 110 % of control | [2] 107 % of control | [3] 107 % of control

NC(=S)n1nc(-c2ccccc2)c(N=Nc2cc(Cl)ccc2Cl)c1-c1ccccc1
inactive: dose: 100.0 mg/kg/injection, schedule: Q04DX002 (ip), vehicle: saline with Tween-80 89 % of control | dose: 200.0 mg/kg/injection, schedule: Q04DX002 (ip), vehicle: saline with Tween-80 90 % of control | dose: 400.0 mg/kg/injection, schedule: Q04DX002 (ip), vehicle: saline with Tween-80 110 % of control

CC1=CCC(C#N)N(C)C1c1ccccc1 (stereo unspecified)
inactive: dose: 50.0 mg/kg/injection, schedule: Q01DX005 (ip), vehicle: Klucel (hydroxypropylcellulose) (HPC) 108 % of control | dose: 100.0 mg/kg/injection, schedule: Q01DX005 (ip), vehicle: Klucel (hydroxypropylcellulose) (HPC) 97 % of control | dose: 200.0 mg/kg/injection, schedule: Q01DX005 (ip), vehicle: Klucel (hydroxypropylcellulose) (HPC) 99 % of control

CC1(C)CC(O)(C(Cl)c2ccccc2)C(=O)c2ccccc21 (stereo unspecified)
inactive: dose: 25.0 mg/kg/injection, schedule: Q01DX009 (ip), vehicle: Klucel (hydroxypropylcellulose) (HPC) 96 % of control | dose: 50.0 mg/kg/injection, schedule: Q01DX009 (ip), vehicle: Klucel (hydroxypropylcellulose) (HPC) 93 % of control | dose: 100.0 mg/kg/injection, schedule: Q01DX009 (ip), vehicle: Klucel (hydroxypropylcellulose) (HPC) 93 % of control | dose: 200.0 mg/kg/injection, schedule: Q01DX009 (ip), vehicle: Klucel (hydroxypropylcellulose) (HPC) 94 % of control | dose: 400.0 mg/kg/injection, schedule: Q01DX009 (ip), vehicle: Klucel (hydroxypropylcellulose) (HPC) 86 % of control

O=c1n(-c2ccccc2)c(=O)n2n1C1C3C4C5C3C2C5(F)C41 (stereo unspecified)
inactive: dose: 100.0 mg/kg/injection, schedule: Q04DX003 (ip), vehicle: Klucel (hydroxypropylcellulose) (HPC) 103 % of control | dose: 200.0 mg/kg/injection, schedule: Q04DX003 (ip), vehicle: Klucel (hydroxypropylcellulose) (HPC) 104 % of control

COC(=O)c1ccc(C)[n+](C2OC(COC(=O)c3ccccc3)C(OC(=O)c3ccccc3)C2OC(=O)c2ccccc2)c1 (stereo unspecified)
inactive: dose: 50.0 mg/kg/injection, schedule: Q01DX005 (ip), vehicle: saline + Tween-80 + alcohol 100 % of control | dose: 100.0 mg/kg/injection, schedule: Q01DX005 (ip), vehicle: saline + Tween-80 + alcohol 100 % of control | dose: 200.0 mg/kg/injection, schedule: Q01DX005 (ip), vehicle: saline + Tween-80 + alcohol 98 % of control

COc1cc(C2CC(=O)N(c3ccc(C)cc3)C(=O)C2)cc(OC)c1OC
inactive: dose: 25.0 mg/kg/injection, schedule: Q01DX005 (ip), vehicle: Klucel + Tween-80 98 % of control | dose: 50.0 mg/kg/injection, schedule: Q01DX005 (ip), vehicle: Klucel + Tween-80 100 % of control and 105 % of control and 122 % of control | dose: 50.0 mg/kg/injection, schedule: Q01DX009 (ip), vehicle: Klucel + Tween-80 108 % of control | dose: 100.0 mg/kg/injection, schedule: Q01DX005 (ip), vehicle: Klucel + Tween-80 106 % of control and 110 % of control (2×) | dose: 114.0 mg/kg/injection, schedule: Q01DX009 (ip), vehicle: Klucel + Tween-80 117 % of control | dose: 175.0 mg/kg/injection, schedule: Q01DX009 (ip), vehicle: Klucel + Tween-80 122 % of control | dose: 200.0 mg/kg/injection, schedule: Q01DX005 (ip), vehicle: Klucel + Tween-80 110 % of control and 114 % of control and 122 % of control | dose: 264.0 mg/kg/injection, schedule: Q01DX009 (ip), vehicle: Klucel + Tween-80 93 % of control | dose: 400.0 mg/kg/injection, schedule: Q01DX009 (ip), vehicle: Klucel + Tween-80 92 % of control
